The text below walks through data of patent publication US20240125678A1, “COMPOUND, CELLULAR VESICLE STAIN, AND METHOD FOR FLUORESCENT STAINING OF CELLULAR VESICLES” (National University Corporation Tokai National Higher …, priority 2021, published 2024).

Structures are written as SMILES.

In assay [1] the test system is incorporation of labeled melanosomes into keratinocyte cells. Nature of the assay: Inhibition of incorporation of labeled melanosomes into cells. The format is cell-based. Particulars: inhibitor final concentration 10 μM, 12 hours, melanosomes labeled with Compound 1, excitation 488 nm. On the procedure:
Incorporation of melanosomes into cells was measured in the presence of a melanosome uptake inhibitor. […] As the melanosome uptake inhibitor, 6-shogaol (192-16161 (Fujifilm Wako)) was used. • (13) After 12 hours, the cells were washed twice with 100 μL of phosphate buffer. • (14) A plate reader (GroMax Multi (Promega)) was used to measure the labeled melanosomes. […]
Comparative Example 4 is the same as Example 29 except that the measurement with the plate reader was performed for absorbance at 450 nm.

In assay [2] the test system is cellular vesicles of mouse malignant melanoma cells B16F10. Nature of the assay: Fluorescent staining of intracellular vesicles with Compound 1 and anti-CD63 antibody. The class given is cell-based.
Assay [3] relates to cellular vesicles / autophagosomes of B16F10 cells. Nature of the assay: Detection of autophagosomes using a PIKfyve inhibitor. The class given is cell-based, mouse. To be noted: 3 μM. On the procedure: An endosome-derived intracellular vesicle formation inhibitor (PIKfyve inhibitor) was used to detect autophagosomes. The procedure is illustrated below. • (1) 3×10^4 of B16F10 cells were plated in a glass bottom dish and cultured for 24 hours. • (2) Compound 1 was added to have the final concentration of 3 μM. • (3) Measurement was performed by using a fluorescence microscope. Note that the measurement was performed with excitation at 470 nm. • (4) PIKfyve inhibitor (HY-13228 (MedChemExpress)) was then added to the culture medium to have the final concentration of 10 μM, which was cultured for 1 hour. • (5) Measurement was performed by using the fluorescence microscope. • (6) PIKfyve inhibitor-containing culture medium was aspirated off, and washing operation was performed twice with a new culture medium, which was cultured with another new culture medium for 3 hours. • (7) Measurement was performed by using the fluorescence microscope.

Assay [4] relates to cellular vesicles of HEK293 cells. The assay is described as follows: Fluorescent staining of cellular vesicles in HEK293 cells. The class given is cell-based, human. To be noted: 0.3 μM, excitation 470 nm. As for the experimental part: Compound 1 was used to fluorescently stain cellular vesicles of HEK293 cells. The procedure is illustrated below. • (1) HEK293A cells (ThermoFisher) were plated in a glass bottom dish and cultured for 24 hours. […] Note that the measurement was performed with excitation at 470 nm.

Assay [5] deals with cellular vesicles of keratinocyte cells (PSVK1). Nature of the assay: Fluorescent staining of cellular vesicles in keratinocyte cells (PSVK1). The format is cell-based, human. Particulars: 0.3 μM, excitation 470 nm. On the procedure: Compound 1 was used to fluorescently stain cellular vesicles of keratinocyte cells (PSVK1). The procedure is illustrated below. • (1) PSVK1 cells (obtained from National Institute of Biomedical Innovation, Health and Nutrition, Cell Bank) were plated in a glass bottom dish and cultured for 24 hours. […] Note that the measurement was performed with excitation at 470 nm.

Assay [6] deals with cellular vesicles of living B16F10 cells. Nature of the assay: Specificity 1: staining of cellular vesicles of living versus fixed (dead) cells. The format is cell-based, mouse. Particulars: B16F10, 0.3 μM, mixed fixed (dead) and living cells.
For assay [7], the system named is cellular vesicles of B16F10 cells. Nature of the assay: Specificity 2: comparison with another cellular vesicle staining agent. To be noted: Compound 1 3 μM without washing, ExoSparkler Mem Dye-Red 1 μL/mL with washing. The class given is cell-based, mouse. On the procedure:
Compound 1 was used for fluorescent staining of intracellular vesicles. The procedure is illustrated below. • (1) 3×10^4 of B16F10 cells were plated in a glass bottom dish and cultured for 24 hours. • (2) Compound 1 was added to the culture medium to have the final concentration of 3 μM. • (3) Measurement was performed by using the fluorescence microscope. Note that the measurement was performed with excitation at 470 nm.
Comparative example 1 is the same as Example 18 except that, instead of Compound 1, 1 μL/mL of ExoSparkler Mem Dye-Red (340-09671 (Dojindo Laboratories)) was added to the culture medium, the culture medium was aspirated off after the addition of ExoSparkler Mem Dye-Red, and a new culture medium was added for washing. Note that the measurement was performed with excitation at 540 nm.

Assay [8] has the same test system. Nature of the assay: Specificity 3: staining in the presence of foreign substances (mouse dung). The class given is cell-based. Particulars: B16F10 cells mixed with mouse dung suspension; Compound 1 0.3 μM; CellMask reagent 1 μL. As for the experimental part: Intracellular vesicles were fluorescently stained by Compound 1 in the presence of foreign substances. The procedure is illustrated below. • (1) 100 mg of mouse dung was collected, and the collected dung was suspended in 10-fold volume (1 mL) of phosphate buffer. • (2) B16F10 cells were detached using trypsin EDTA (NACALAI TESQUE) and collected, and 1×10^4 cells were suspended in 100 μL of phosphate buffer and mixed with 10 μL of the mouse dung suspension of (1) . • (3) The suspension of the cells and the […] was spread on a glass bottom dish, and 300 μM of Compound 1 was added to have the final concentration of 0.3 μM. • (4) Measurement was performed by using the fluorescence microscope. Note that the measurement was performed with excitation at 470 nm.
Comparative example 2 is the same as Example 19 except that, instead of Compound 1, 1 μL of CellMask reagent (C10045 (ThermoFisher)) was added to the suspension of the cells and the dung. Note that the measurement was performed with excitation at 540 nm.

Assay [9] relates to milk exosomes. The assay is described as follows: Fluorescent staining of exosomes. Particulars: 0.3 μM in phosphate buffer.
Assay [10] concerns milk exosomes. Nature of the assay: Calibration curve in exosome detection. To be noted: 0.3 μM, milk exosomes 0.1 to 1 ng per well, fetal bovine serum/phosphate buffer.
For assay [11], the system named is labeled milk exosomes in HEK293A cells. The assay is described as follows: Incorporation of labeled exosomes into cells. The format is cell-based, human.

As to `CCCCC/C=C/C(=O)CCc1ccc(O)c(OC)c1` [melanosome uptake inhibitor, 6-shogaol], in assay [1], the “incorporation of labeled melanosomes into keratinocyte cells” value is listed as “incorporation of the labeled melanosomes into keratinocyte cells is inhibited”.
As for `CN(C)c1ccc(CCCN(C)C2CCc3cc(OCCNc4ccc([N+](=O)[O-])c5nonc45)ccc32)cc1` (stereo not drawn) [Compound 1], the “overlap of compound fluorescence with fluorescence of the antibody conjugated with CD63” value in assay [2] (0.3 μM, fixed, anti-CD63 antibody excited at 540 nm) is reported as “overlap each other”. Moreover, in [2] (final concentration 0.3 μM, 5 minutes, excitation 470 nm), the “fluorescent staining of cellular vesicles” value is reported as “can fluorescently stain cellular vesicles”. Besides, in [3] (before/after PIKfyve inhibitor 10 μM 1 hour), the “fluorescent staining of PIKfyve dependent cellular vesicles” value is “can also fluorescently stain the PIKfyve dependent cellular vesicles”. In addition, in [3] (cultured 3 hours after removal of PIKfyve inhibitor), the “fluorescent staining of autophagosome membrane” value is listed as “the autophagosome membrane enclosing the melanosome was fluorescently stained”. In [4], the “fluorescent staining of cellular vesicle of HEK293 cell” value was “can fluorescently stain”. Also, in [5], the “fluorescent staining of cellular vesicle of PSVK1 cell” value is “can fluorescently stain”. The “staining of cellular vesicles of living cells versus dead cells” value in assay [6] is given as “fluorescently stains cellular vesicles of living cells”. In [7], the “specificity of fluorescent staining to cellular vesicles” value is given as “high specificity to cellular vesicles”. Besides, in assay [8], the “specificity of fluorescent staining in the presence of foreign substances” value is “can specifically fluorescently stain cellular vesicles”. Also, the “fluorescence with milk exosomes added” value with milk exosomes [9] (10 ng milk exosomes, excitation 302 nm) is “conjugates with exosomes that are cellular vesicles and emits fluorescence”. Moreover, the “fluorescence without milk exosomes (Comparative example 3)” value in the assay on milk exosomes [9] (no milk exosome added) is “no fluorescence was emitted”. Also, in the assay on milk exosomes [10], the “fluorescence intensity versus amount of added milk exosomes” value is on record as “the fluorescence intensity increased depending on the amount of externally added milk exosomes”. Further, the “incorporation of exosomes labeled with the compound into cells” value in [11] (HEK293A cells, 12 hours after addition) is recorded as “are incorporated into cells”. Further, in assay [11] (milk exosomes stained 5 minutes with 0.3 μM), the “conjugation with exosomes (overlap with ExoSparkler Mem Dye-Red fluorescence)” value is “specifically conjugates with the exosomes”.
